The values below come from patent publication US5385893A, “Tricyclopolyazamacrocyclophosphonic acids, complexes and derivatives thereof, for use as contrast agents” (The Dow Chemical Company, priority 1993, dated 1995).

Data set [1] is described as follows: Biolocalization of complexes having an overall charge of +1 (bone uptake). It is filed as in vivo. Conditions: complex having an overall charge of +1.
Data set [2] in a line: Complexation: percent samarium metal as a complex (Sephadex column). It is filed as physicochemical. As to the method:
Metal ligand complexes were prepared by various methods. The methods included mixing of the metal and ligand in aqueous solution and adjusting the pH to the desired value. Complexation was done in solutions containing salts and/or buffers as well as water.
For example, a solution of the ligand is prepared by dissolving the ligand in deionized water (about pH=2). A ligand/metal complex was then prepared by combining the ligand solution with aqueous SmCl3.H2 O (3×^-4 M in 0.01N HCl) containing tracer ^153 SmCl3. After thorough mixing, the percent metal as a complex was determined by passing a sample of the complex solution through a Sephadex™ column, eluting with 4:1 saline (0.85% NaCl/NH4 OH), and collecting 2×3 mL fractions. The amount of radioactivity in the combined elutions was then compared with that left on the resin. Under these conditions, complex was removed with the eluent and non-complexed metal is retained on the resin. By this method complexation was determined to usually be about 95% or greater.
Using the above procedure, the complexes of samarium with […]

For data set [3] the following is noted: breakdown of the blood/brain barrier allows perfusion; cited from earlier work.
For data set [4] the following is noted: in vivo; cited from earlier work.
The conditions of data set [5]: Prohance versus Magnevist; cited from earlier work.
Data set [6] is described as follows: Biodistribution of 153Sm complexes in rats (% injected dose per organ, NaI scintillation counting after tail vein injection). Conditions: 2 hours post injection; for Biodistribution: Brain / Biodistribution: Heart / Biodistribution: Kidney / Biodistribution: Large Intestine / Biodistribution: Liver / Biodistribution: Lung / Biodistribution: Small Intestine / Biodistribution: Spleen / Biodistribution: Stomach / Biodistribution: Blood / Biodistribution: Bone / Biodistribution: Muscle: i.v. tail vein; for Biodistribution: Blood: blood assumed 6.5% of body weight; for Biodistribution: Bone: femur x 25; for Biodistribution: Muscle: muscle assumed 43% of body weight; for Ratio Bone/Blood / Ratio Bone/Liver / Ratio Bone/Muscle / Ratio Bone/Spleen: ratio of average % injected dose. It is filed as in vivo, Sprague Dawley rats. The procedure:
A stock ^159 GdCl3 (or ^153 SMCl3) solution was prepared by adding 2 μL of 3×10^-4 M ^159 GdCl3 in 0.1N HCl to 2 mL of a 3×10^-4 M GdCl3 carrier solution. Appropriate ligand solutions were then prepared in deionized water. The 1:1 ligand/metal complexes were then prepared by combining the ligands (dissolved in 100-500 μL of deionized water) with 2 mL of the stock ^159 GdCl3 solution, followed by through mixing to give an acidic solution (pH=2). The pH of the solution was then raised to 7.0 using 0.1N NaOH. The percent metal as a complex was then determined by passing a sample of the complex solution through a Sephadex™ G-50 column, eluting with 4:1 saline ([…]) and collecting 2×3 mL fractions. The amount of radioactivity in the combined elutions was then compared with that left on the resin (non-complexed metal is retained on the resin). The pH stability profile was generated by adjusting the pH of an aliquot of the complex solution using 1M NaOH or 1M HCl and determining the percent of the metal existing as a complex using the ion exchange method described above. The Sm results are known by expermintal comparison to be identical for complexation and biodistribution of the ligands of this invention.
Sprague Dawley rats were allowed to acclimate for five days then injected with 100 μL of the complex solution via a tail vein. The rats weighed between 150 and 250 g at the time of injection. […] The amount of radioactivity in each tissue was determined by counting in a NaI scintillation counter coupled to a multichannel analyzer. The counts were compared to the counts in 100 μL standards in order to determine the percentage of the dose in each tissue or organ.
The percent dose in blood was estimated assuming blood to be 6.5% of the total body weight. The percent dose in bone was estimated by multiplying the percent dose in the femur by 25. The percent dose in muscle was estimated assuming muscle to be 43% of the total body weight.
In addition to organ biodistribution, chelates of the compounds of Formula (I) were evaluated for efficiency of bone localization since phosphonates are known for their ability to bind to hydroxyapatite.

For `O=C(O)CN1Cc2cccc(n2)CN(CC(=O)O)Cc2cccc(n2)C1` [BP2A, N,N'-diacetic acid-2,11-diaza[3.3]-(2,6)pyridinophane], the “bone uptake of complex” value in data set [1] was “displays bone uptake”. The “percent metal as a complex” value in data set [2] (ligand:metal ratio of 4:1) turned out to be 99%.

Take `CCOP(=O)(O)CN1Cc2cccc(n2)CN(CP(=O)(O)OCC)Cc2cccc(n2)C1` [BP2EP, N,N'-bis(methylenephosphonic acid ethyl ester)-2,11-diaza[3.3](2,6)pyridinophane]: in data set [2] (ligand:metal ratio of 4:1), the “percent metal as a complex” value was determined as 98%.

As for `O=P(O)(O)CN1Cc2cccc(n2)CN(CP(=O)(O)O)Cc2cccc(n2)C1` [BP2P, N,N'-bis (methylenephosphonic acid) -2,11-diaza[3.3](2,6)pyridinophane], the “percent metal as a complex” value in data set [2] (ligand:metal ratio of 3:1) is 95%.

Turning to `CNC[C@H](O)[C@@H](O)[C@H](O)[C@H](O)CO.CNC[C@H](O)[C@@H](O)[C@H](O)[C@H](O)CO.O=C([O-])CN(CCN(CC(=O)[O-])CC(=O)O)CCN(CC(=O)[O-])CC(=O)O.[Gd+3]` [Magnevist, complex of gadolinium with diethylenetriaminepentaacetic acid], the “usefulness in the diagnosis of brain lesions” value in data set [3] is listed as “extremely valuable in the diagnosis of brain lesions”. The distribution and elimination entry in data set [4] is “freely distribute in extracellular fluid followed by efficient elimination through the renal system”.

With `CC(O)CN1CCN(CC(=O)[O-])CCN(CC(=O)[O-])CCN(CC(=O)[O-])CC1.[Gd+3]` (stereo not drawn) [Prohance, [1,4,7-tris(carboxymethyl)-10-(2-hydroxypropyl)-1,4,7,10-tetraazacyclododecanato]-gadolinium], in data set [4], the distribution and elimination entry is on record as “freely distribute in extracellular fluid followed by efficient elimination through the renal system”. Further, the side effects entry in data set [5] is “fewer side effects than Magnevist”.

For `O=C(O)CN1Cc2cccc(n2)CN(CC(=O)O)Cc2cccc(n2)CN(CC(=O)O)Cc2cccc(n2)C1` [TP3A, N,N',N"-triacetic acid-2,11,20-diaza[3.3.3](2,6)pyridinophane], in data set [2] (ligand:metal ratio of 3:1), the “percent metal as a complex” value turned out to be 98.6%.

Take `O=C([O-])CN1Cc2cccc(n2)CN(CC(=O)[O-])Cc2cccc(n2)C1.[153Sm+3]` [^153 Sm-BP2A, ^153 Sm N,N'-diacetic acid-2,11-diaza[3.3](2,6)pyridinophane]: in data set [6], the “Biodistribution: Brain” value was determined as 0.01 % INJECTED DOSE, the “Biodistribution: Heart” value worked out at 0.02 % INJECTED DOSE, the “Biodistribution: Kidney” value stood at 0.95 % INJECTED DOSE and the “Biodistribution: Large Intestine” value was 0.04 % INJECTED DOSE. Besides, in data set [6], the “Biodistribution: Liver” value was determined as 0.68 % INJECTED DOSE, the “Biodistribution: Lung” value was 0.06 % INJECTED DOSE, the “Biodistribution: Small Intestine” value came out at 0.80 % INJECTED DOSE and the “Biodistribution: Spleen” value is on record as 0.01 % INJECTED DOSE. Further, in data set [6], the “Biodistribution: Stomach” value was 0.05 % INJECTED DOSE, the “Biodistribution: Blood” value was 0.43 % INJECTED DOSE, the “Biodistribution: Bone” value amounted to 27.98 % INJECTED DOSE and the “Biodistribution: Muscle” value came to 0.80 % INJECTED DOSE. In data set [6], the “Ratio Bone/Blood” value turned out to be 65, the “Ratio Bone/Liver” value turned out to be 41, the “Ratio Bone/Muscle” value is listed as 35 and the “Ratio Bone/Spleen” value is reported as 2,798.

`CCOP(=O)([O-])CN1Cc2cccc(n2)CN(CP(=O)([O-])OCC)Cc2cccc(n2)C1.[153Sm+3]` [^153 Sm-BP2EP, ^53 Sm N,N'-bis(methylenephosphonic acid ethyl ester)-2,11-diaza[3.3](2,6)pyridinophane]: in data set [6], the “Biodistribution: Brain” value came to 0.01 % INJECTED DOSE, the “Biodistribution: Heart” value came to 0.04 % INJECTED DOSE, the “Biodistribution: Kidney” value came out at 0.74 % INJECTED DOSE and the “Biodistribution: Large Intestine” value was determined as 0.25 % INJECTED DOSE. Besides, in data set [6], the “Biodistribution: Liver” value stood at 5.97 % INJECTED DOSE, the “Biodistribution: Lung” value stood at 0.19 % INJECTED DOSE, the “Biodistribution: Small Intestine” value is 0.33 % INJECTED DOSE and the “Biodistribution: Spleen” value is reported as 0.32 % INJECTED DOSE. Also, in data set [6], the “Biodistribution: Stomach” value stood at 0.36 % INJECTED DOSE, the “Biodistribution: Blood” value is recorded as 0.45 % INJECTED DOSE, the “Biodistribution: Bone” value is 39.82 % INJECTED DOSE and the “Biodistribution: Muscle” value was 1.21 % INJECTED DOSE. Besides, in data set [6], the “Ratio Bone/Blood” value was determined as 88, the “Ratio Bone/Liver” value turned out to be 7, the “Ratio Bone/Muscle” value is 33 and the “Ratio Bone/Spleen” value was 124.

Turning to `O=P([O-])([O-])CN1Cc2cccc(n2)CN(CP(=O)([O-])[O-])Cc2cccc(n2)C1.[153Sm+3]` [^153 Sm-BP2P, ^153 Sm N,N'-bis(methylenephosphonic acid)-2,11-diaza[3.3](2,6)pyridinophane], in data set [6], the “Biodistribution: Brain” value worked out at 0.01 % INJECTED DOSE, the “Biodistribution: Heart” value was found to be 0.07 % INJECTED DOSE, the “Biodistribution: Kidney” value worked out at 1.21 % INJECTED DOSE and the “Biodistribution: Large Intestine” value came to 0.13 % INJECTED DOSE. In data set [6], the “Biodistribution: Liver” value is given as 3.71 % INJECTED DOSE, the “Biodistribution: Lung” value is on record as 0.17 % INJECTED DOSE, the “Biodistribution: Small Intestine” value was 0.39 % INJECTED DOSE and the “Biodistribution: Spleen” value came out at 0.05 % INJECTED DOSE. For the same molecule, in data set [6], the “Biodistribution: Stomach” value is listed as 0.20 % INJECTED DOSE, the “Biodistribution: Blood” value is on record as 0.87 % INJECTED DOSE, the “Biodistribution: Bone” value is recorded as 60.08 % INJECTED DOSE and the “Biodistribution: Muscle” value came to 1.53 % INJECTED DOSE. In data set [6], the “Ratio Bone/Blood” value is given as 69, the “Ratio Bone/Liver” value is recorded as 16, the “Ratio Bone/Muscle” value is listed as 39 and the “Ratio Bone/Spleen” value is recorded as 1,201.

Consider `O=C([O-])CN1Cc2cccc(n2)CN(CC(=O)[O-])Cc2cccc(n2)CN(CC(=O)[O-])Cc2cccc(n2)C1.[153Sm+3]` [^153 Sm-TP3A, ^153 Sm N,N',N"-triacetic acid-2,11,20-diaza[3.3.3](2,6)pyridinophane], for which, in data set [6], the “Biodistribution: Heart” value turned out to be 0.016 % INJECTED DOSE, the “Biodistribution: Kidney” value is 0.639 % INJECTED DOSE, the “Biodistribution: Large Intestine” value stood at 0.156 % INJECTED DOSE and the “Biodistribution: Liver” value stood at 0.570 % INJECTED DOSE. Further, in data set [6], the “Biodistribution: Lung” value stood at 0.047 % INJECTED DOSE, the “Biodistribution: Small Intestine” value turned out to be 1.426 % INJECTED DOSE, the “Biodistribution: Spleen” value was determined as 0.068 % INJECTED DOSE and the “Biodistribution: Stomach” value is on record as 0.036 % INJECTED DOSE. Also, in data set [6], the “Biodistribution: Blood” value is recorded as 0.437 % INJECTED DOSE, the “Biodistribution: Bone” value is recorded as 1.495 % INJECTED DOSE, the “Biodistribution: Muscle” value came to 0.833 % INJECTED DOSE and the “Ratio Bone/Blood” value amounted to 3. In data set [6], the “Ratio Bone/Liver” value worked out at 3, the “Ratio Bone/Muscle” value is 2 and the “Ratio Bone/Spleen” value turned out to be 22.
